Assay results published in US8871753B2, “Macrocyclic compounds and their use as kinase inhibitors” (Incyte Corporation, priority 2008, dated 2014).

Tests used:
Type in all cases: biochemical
[1] = target: T1, human JAK2 (a.a. 828-1132) (Homo sapiens, UniProt O60674); assay: In vitro JAK kinase assay (HTRF, phosphorylation of a biotinylated peptide), JAK2; conditions: Table B1
T1 construct: JAK2 (a.a. 828-1132); His tag (N); made in house; host or cells: insect cells (baculovirus)
How it was run: (§1)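 Kinase reactions ran at room temperature for 1 h with ATP matched per isoform (JAK1 90 μM, JAK2 30 μM, JAK3 3 μM). After an EDTA stop, the phosphorylated biotin-peptide was read by HTRF using Eu-Py20 and SA-APC after 40 min binding.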

[2] = target: T2, human JAK1 (a.a. 837-1142) (Homo sapiens, UniProt P23458); assay: In vitro JAK kinase assay (HTRF, phosphorylation of a biotinylated peptide), JAK1; conditions: Table B1; read-out: JAK1 IC50
T2 construct: human JAK1 (a.a. 837-1142); His tag (N); made in house; host or cells: insect cells (baculovirus)
T2 sequence (P23458 849-1154): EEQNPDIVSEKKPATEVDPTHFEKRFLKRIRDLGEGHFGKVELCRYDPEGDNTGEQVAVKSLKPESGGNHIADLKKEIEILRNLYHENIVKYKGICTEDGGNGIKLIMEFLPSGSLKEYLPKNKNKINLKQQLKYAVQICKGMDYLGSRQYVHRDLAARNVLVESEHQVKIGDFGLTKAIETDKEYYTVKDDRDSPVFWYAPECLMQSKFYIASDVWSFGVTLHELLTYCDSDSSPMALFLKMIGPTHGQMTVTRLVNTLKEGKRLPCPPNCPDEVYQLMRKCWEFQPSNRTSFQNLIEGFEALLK
How it was run: as §1

[3] = target: T3, human JAK3 (a.a. 781-1124) (Homo sapiens, UniProt P52333); assay: In vitro JAK kinase assay (HTRF, phosphorylation of a biotinylated peptide), JAK3; conditions: Table B1
T3 construct: JAK3 (a.a. 781-1124); His tag (N); made in house; host or cells: insect cells (baculovirus)
T3 sequence (P52333 781-1124): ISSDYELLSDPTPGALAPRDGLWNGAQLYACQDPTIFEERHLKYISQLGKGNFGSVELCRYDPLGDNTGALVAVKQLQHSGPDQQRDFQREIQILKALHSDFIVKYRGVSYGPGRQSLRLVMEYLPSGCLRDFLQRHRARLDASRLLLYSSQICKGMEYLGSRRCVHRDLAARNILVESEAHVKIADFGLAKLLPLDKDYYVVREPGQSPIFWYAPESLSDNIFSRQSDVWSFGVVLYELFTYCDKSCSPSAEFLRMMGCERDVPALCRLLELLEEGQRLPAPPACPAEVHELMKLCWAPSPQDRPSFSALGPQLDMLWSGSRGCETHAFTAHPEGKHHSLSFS
How it was run: as §1

[4] = target: TYK2 (Homo sapiens, UniProt P29597); assay: TYK2 kinase inhibition (Table A1); conditions: Table B1
TYK2, sequence (P29597 whole entry): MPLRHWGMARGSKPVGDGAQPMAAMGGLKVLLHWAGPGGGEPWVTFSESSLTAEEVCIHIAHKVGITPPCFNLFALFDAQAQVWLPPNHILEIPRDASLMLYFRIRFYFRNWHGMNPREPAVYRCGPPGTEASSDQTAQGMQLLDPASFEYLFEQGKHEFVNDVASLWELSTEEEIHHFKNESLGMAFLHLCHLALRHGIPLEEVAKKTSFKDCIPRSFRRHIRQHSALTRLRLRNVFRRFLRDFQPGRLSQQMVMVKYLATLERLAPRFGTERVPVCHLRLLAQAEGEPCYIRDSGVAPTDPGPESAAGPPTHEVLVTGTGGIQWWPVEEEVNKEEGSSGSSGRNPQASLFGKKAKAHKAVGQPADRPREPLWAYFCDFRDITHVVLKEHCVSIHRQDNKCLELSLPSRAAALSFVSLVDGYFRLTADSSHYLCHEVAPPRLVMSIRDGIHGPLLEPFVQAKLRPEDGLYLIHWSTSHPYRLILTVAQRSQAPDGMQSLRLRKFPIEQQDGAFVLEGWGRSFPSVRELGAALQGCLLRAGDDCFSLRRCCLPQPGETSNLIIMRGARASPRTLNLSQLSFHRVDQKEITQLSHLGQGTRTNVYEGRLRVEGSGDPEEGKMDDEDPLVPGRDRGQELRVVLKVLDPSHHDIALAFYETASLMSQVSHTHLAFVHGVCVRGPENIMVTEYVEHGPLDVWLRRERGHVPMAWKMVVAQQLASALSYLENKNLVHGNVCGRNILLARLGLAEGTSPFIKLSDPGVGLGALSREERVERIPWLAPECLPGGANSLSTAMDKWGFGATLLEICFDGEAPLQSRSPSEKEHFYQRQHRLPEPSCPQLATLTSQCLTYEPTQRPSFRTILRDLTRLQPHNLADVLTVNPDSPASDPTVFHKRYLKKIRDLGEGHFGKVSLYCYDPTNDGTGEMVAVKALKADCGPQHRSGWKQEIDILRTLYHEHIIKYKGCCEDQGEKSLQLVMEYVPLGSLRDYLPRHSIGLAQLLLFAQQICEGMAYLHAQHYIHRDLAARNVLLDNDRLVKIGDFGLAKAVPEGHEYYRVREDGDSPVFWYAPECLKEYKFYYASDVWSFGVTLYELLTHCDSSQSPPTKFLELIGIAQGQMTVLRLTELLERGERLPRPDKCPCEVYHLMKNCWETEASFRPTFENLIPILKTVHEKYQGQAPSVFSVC

[5] = target: T4, Recombinant Human Anaplastic Lymphoma Kinase (Homo sapiens, UniProt Q9UM73); assay: ALK HTRF kinase assay; conditions: percentage inhibition of the example compound at a concentration of 500 nM or 1 mM (not specified which)
T4 construct: purchased Invitrogen, Carlsbad, Calif
T4 sequence (Q9UM73 19-1620): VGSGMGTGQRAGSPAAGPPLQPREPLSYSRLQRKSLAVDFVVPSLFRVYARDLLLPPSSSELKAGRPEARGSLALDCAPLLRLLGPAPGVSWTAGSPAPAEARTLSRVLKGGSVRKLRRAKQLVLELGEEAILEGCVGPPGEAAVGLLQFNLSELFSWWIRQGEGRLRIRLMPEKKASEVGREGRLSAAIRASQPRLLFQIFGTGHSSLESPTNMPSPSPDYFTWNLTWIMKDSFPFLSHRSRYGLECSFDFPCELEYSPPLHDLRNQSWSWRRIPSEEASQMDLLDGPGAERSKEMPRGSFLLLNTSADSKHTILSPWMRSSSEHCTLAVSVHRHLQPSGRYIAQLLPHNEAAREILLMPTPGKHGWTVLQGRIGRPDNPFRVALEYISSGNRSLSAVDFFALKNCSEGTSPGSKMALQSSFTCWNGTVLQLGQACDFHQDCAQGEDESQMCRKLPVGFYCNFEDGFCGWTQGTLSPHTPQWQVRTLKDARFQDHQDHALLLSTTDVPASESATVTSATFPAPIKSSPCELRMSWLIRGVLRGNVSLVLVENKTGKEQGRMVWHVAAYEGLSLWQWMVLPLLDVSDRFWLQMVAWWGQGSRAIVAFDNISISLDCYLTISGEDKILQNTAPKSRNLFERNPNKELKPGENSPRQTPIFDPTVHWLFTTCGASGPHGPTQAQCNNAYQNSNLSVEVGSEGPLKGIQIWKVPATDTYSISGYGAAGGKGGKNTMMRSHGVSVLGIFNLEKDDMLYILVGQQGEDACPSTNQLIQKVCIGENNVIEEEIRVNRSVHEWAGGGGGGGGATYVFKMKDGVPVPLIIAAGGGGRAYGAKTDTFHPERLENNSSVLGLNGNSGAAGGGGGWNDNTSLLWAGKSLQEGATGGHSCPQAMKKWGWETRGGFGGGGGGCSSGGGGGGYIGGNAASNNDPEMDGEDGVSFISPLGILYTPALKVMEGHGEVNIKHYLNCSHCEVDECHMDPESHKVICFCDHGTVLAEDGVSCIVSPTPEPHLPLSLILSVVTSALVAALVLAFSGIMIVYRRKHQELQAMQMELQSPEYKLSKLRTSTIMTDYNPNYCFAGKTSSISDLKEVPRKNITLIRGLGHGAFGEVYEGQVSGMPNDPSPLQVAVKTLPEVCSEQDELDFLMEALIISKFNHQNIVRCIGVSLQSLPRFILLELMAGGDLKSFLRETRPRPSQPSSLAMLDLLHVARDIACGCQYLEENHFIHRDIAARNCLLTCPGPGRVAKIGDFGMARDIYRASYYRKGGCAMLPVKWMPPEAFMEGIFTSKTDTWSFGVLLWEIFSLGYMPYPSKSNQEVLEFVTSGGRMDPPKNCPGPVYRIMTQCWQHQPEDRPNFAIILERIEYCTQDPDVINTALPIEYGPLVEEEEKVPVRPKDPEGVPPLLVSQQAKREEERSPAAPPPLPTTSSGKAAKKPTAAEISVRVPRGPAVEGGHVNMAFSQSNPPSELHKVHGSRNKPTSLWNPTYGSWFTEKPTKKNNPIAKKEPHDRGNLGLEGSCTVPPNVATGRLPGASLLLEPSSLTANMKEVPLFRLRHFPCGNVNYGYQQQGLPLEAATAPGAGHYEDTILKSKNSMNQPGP
How it was run: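 Compounds were incubated with recombinant human ALK and a biotin-tagged peptide substrate. Product was captured with streptavidin-APC and probed with a europium anti-phosphotyrosine antibody, and plates were read for time-resolved fluorescence. Dose-response data were fitted to derive IC50.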

T1 sequence (O60674 828-1132): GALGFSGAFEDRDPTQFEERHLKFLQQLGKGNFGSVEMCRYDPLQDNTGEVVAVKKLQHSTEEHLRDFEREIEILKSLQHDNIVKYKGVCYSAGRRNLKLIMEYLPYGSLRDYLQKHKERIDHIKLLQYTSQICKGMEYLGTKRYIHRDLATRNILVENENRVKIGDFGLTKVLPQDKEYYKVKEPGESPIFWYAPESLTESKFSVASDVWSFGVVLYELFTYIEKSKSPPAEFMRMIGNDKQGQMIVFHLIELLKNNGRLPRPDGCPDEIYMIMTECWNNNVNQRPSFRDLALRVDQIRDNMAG

Row | SMILES | IC50 [1] | IC50 [2] | IC50 [3] | IC50 [4] | ALK % of inhibition at a concentration of 500 nM or 1 mM [5]
1 | N#Cc1ccc(N2CCN(C(=O)Nc3ccc4cc3CCc3cncc(c3)Nc3ncc(Cl)c(n3)N4)CC2)nc1 [Example B310, N-[6-Chloro-2,4,8,18,22-pentaazatetracyclo[14.3.1.1(3,7).1(9,13)]docosa-1(20),3(22),4,6,9(21),10,12,16,18-nonaen-12-yl]-4-(5-cyanopyridin-2-yl)piperazine-1-carboxamide tris(trifluoroacetate)] | 0.061 µM | 0.024 µM | > 0.4 µM | 0.044 µM | 74%
2 | N#Cc1cccnc1N1CCN(C(=O)Nc2ccc3cc2CCc2cncc(c2)Nc2ncc(Cl)c(n2)N3)CC1 [Example B311, N-[6-Chloro-2,4,8,18,22-pentaazatetracyclo[14.3.1.1(3,7).1(9,13)]docosa-1(20),3(22),4,6,9(21),10,12,16,18-nonaen-12-yl]-4-(3-cyanopyridin-2-yl)piperazine-1-carboxamide tris(trifluoroacetate)] | 0.17 µM | 0.02 µM | > 0.4 µM | 0.146 µM | 67%
3 | O=C(Nc1ccc2cc1CCc1cncc(c1)Nc1ncc(Cl)c(n1)N2)N1CCC(c2ccccc2)C1 (centres unmarked) [Example B312, N-[6-Chloro-2,4,8,18,22-pentaazatetracyclo[14.3.1.1(3,7).1(9,13)]docosa-1(20),3(22),4,6,9(21),10,12,16,18-nonaen-12-yl]-3-phenylpyrrolidine-1-carboxamide bis(trifluoroacetate)] | 0.07 µM | 0.005 µM | > 0.4 µM | 0.042 µM | 40%
4 | O=C(Nc1ccc2cc1CCc1cncc(c1)Nc1ncc(Cl)c(n1)N2)N1CCC(c2cnccn2)C1 (centres unmarked) [Example B313, N-[6-Chloro-2,4,8,18,22-pentaazatetracyclo[14.3.1.1(3,7).1(9,13)]docosa-1(20),3(22),4,6,9(21),10,12,16,18-nonaen-12-yl]-3-pyrazin-2-ylpyrrolidine-1-carboxamide tetrakis(trifluoroacetate)] | 0.371 µM | 0.048 µM | > 0.4 µM | > 0.4 µM | 20%
5 | O=C(Nc1ccc2cc1CCc1cncc(c1)Nc1ncc(Cl)c(n1)N2)N1CCC(c2ccccc2)CC1 [Example B314, N-[6-Chloro-2,4,8,18,22-pentaazatetracyclo[14.3.1.1(3,7).1(9,13)]docosa-1(20),3(22),4,6,9(21),10,12,16,18-nonaen-12-yl]-4-phenylpiperidine-1-carboxamide bis(trifluoroacetate)] | 0.108 µM | 0.028 µM | > 0.4 µM | 0.067 µM | 69%
6 | O=C(Nc1ccc2cc1CCc1cncc(c1)Nc1ncc(Cl)c(n1)N2)N1CCN2CCCC2C1 (centres unmarked) [Example B315, N-[6-Chloro-2,4,8,18,22-pentaazatetracyclo[14.3.1.1(3,7).1(9,13)]docosa-1(20),3(22),4,6,9(21),10,12,16,18-nonaen-12-yl]hexahydropyrrolo[1,2-a]pyrazine-2(1H)-carboxamide tris(trifluoroacetate)] | > 0.4 µM | 0.047 µM | > 0.4 µM | 0.235 µM | 50%
7 | O=C(Nc1ccc2cc1CCc1cncc(c1)Nc1ncc(Cl)c(n1)N2)N1CCn2c(nnc2C(F)(F)F)C1 [Example B316, N-[6-Chloro-2,4,8,18,22-pentaazatetracyclo[14.3.1.1(3,7).1(9,13)]docosa-1(20),3(22),4,6,9(21),10,12,16,18-nonaen-12-yl]-3-(trifluoromethyl)-5,6-dihydro[1,2,4]triazolo[4,3-a]pyrazine-7(8H)-carboxamide tris(trifluoroacetate)] | 0.18 µM | 0.016 µM | > 0.4 µM | 0.208 µM | 64%
8 | CC(=O)N1CCN(C(=O)Nc2ccc3cc2CCc2cncc(c2)Nc2ncc(Cl)c(n2)N3)CC1 [Example B317, 4-Acetyl-N-[6-chloro-2,4,8,18,22-pentaazatetracyclo[14.3.1.1(3,7).1(9,13)]docosa-1(20),3(22),4,6,9(21),10,12,16,18-nonaen-12-yl]piperazine-1-carboxamide bis(trifluoroacetate)] | > 0.4 µM | 0.057 µM | > 0.4 µM | 0.356 µM | 50%
9 | CS(=O)(=O)N1CCN(C(=O)Nc2ccc3cc2CCc2cncc(c2)Nc2ncc(Cl)c(n2)N3)CC1 [Example B318, N-[6-Chloro-2,4,8,18,22-pentaazatetracyclo[14.3.1.1(3,7).1(9,13)]docosa-1(20),3(22),4,6,9(21),10,12,16,18-nonaen-12-yl]-4-(methylsulfonyl)piperazine-1-carboxamide bis(trifluoroacetate)] | 0.371 µM | 0.024 µM | > 0.4 µM | 0.07 µM | 61%
10 | O=C(Nc1ccc2cc1CCc1cncc(c1)Nc1ncc(Cl)c(n1)N2)N1CCN(S(=O)(=O)c2ccccc2)CC1 [Example B319, N-[6-Chloro-2,4,8,18,22-pentaazatetracyclo[14.3.1.1(3,7).1(9,13)]docosa-1(20),3(22),4,6,9(21),10,12,16,18-nonaen-12-yl]-4-(phenylsulfonyl)piperazine-1-carboxamide bis(trifluoroacetate)] | > 0.4 µM | 0.042 µM | > 0.4 µM | 0.288 µM | 58%
11 | CC1CN(C(=O)Nc2ccc3cc2CCc2cncc(c2)Nc2ncc(Cl)c(n2)N3)CCN1c1ccccc1 (centres unmarked) [Example B320, N-[6-Chloro-2,4,8,18,22-pentaazatetracyclo[14.3.1.1(3,7).1(9,13)]docosa-1(20),3(22),4,6,9(21),10,12,16,18-nonaen-12-yl]-3-methyl-4-phenylpiperazine-1-carboxamide tris(trifluoroacetate)] | > 0.4 µM | 0.079 µM | > 0.4 µM | > 0.4 µM | 57%
12 | O=C(Nc1ccc2cc1CCc1cncc(c1)Nc1ncc(Cl)c(n1)N2)N1CCC(S(=O)(=O)c2ccccc2)C1 (centres unmarked) [Example B321, N-[6-Chloro-2,4,8,18,22-pentaazatetracyclo[14.3.1.1(3,7).1(9,13)]docosa-1(20),3(22),4,6,9(21),10,12,16,18-nonaen-12-yl]-3-(phenylsulfonyl)pyrrolidine-1-carboxamide bis(trifluoroacetate)] | 0.371 µM | 0.075 µM | > 0.4 µM | > 0.4 µM | 36%
13 | N#CC1(c2ccccc2)CCN(C(=O)Nc2ccc3cc2CCc2cncc(c2)Nc2ncc(Cl)c(n2)N3)CC1 [Example B322, N-[6-Chloro-2,4,8,18,22-pentaazatetracyclo[14.3.1.1(3,7).1(9,13)]docosa-1(20),3(22),4,6,9(21),10,12,16,18-nonaen-12-yl]-4-cyano-4-phenylpiperidine-1-carboxamide bis(trifluoroacetate)] | 0.313 µM | 0.032 µM | > 0.4 µM | 0.16 µM | 74%
